# Test results taken from US7795300B2, “External preparation for skin” (Kuraray Co., Ltd., priority 2003, dated 2010).
# Read-outs that look alike come from different tables or passages of the source.
# Columns and labels:
# melanoma B-16 cells = type: cell-based; settings: 48 hours
# Protocol: The effect of the combination of a compound (A) and 4-n-butyl resorcinol was studied using melanoma B-16 cells (obtained from Tomita Laboratory at Tohoku University, School of Medicine). MEM (modified Eagle's medium) supplemented with 15% FBS (fetal bovine serum) to which Compound 1 (centaureidin) and 4-butyl resorcinol at various concentrations were added was placed in each well of a microtiter plate. Melanoma B-16 cells were seeded into each well at a dose of 5×10^5 cells/ml and cultured for 48 hours. The cells were collected by means of centrifugal separation and washed twice with the medium, and then the color and number of the cells were judged using scores. Cells cultured without addition of both Compound 1 and 4-n-butyl resorcinol were used as a control, and judgment was carried out based on the following criteria: the color, score 0: the same as the control, score 1: slightly paler than the control, score 2: apparently paler than the control, score 3: cells were almost white, score 4: cells were white; the number of cells, score 0: almost all the cells were dead, score 1: nine-tenth of the cells were dead, score 2: about half the cells were dead, score 3: a few cells were dead, score 4: the number of cells was equal to that of the control. […] Such action is in good accordance with inhibitory action of Compound 1 on dendrites of melanocytes.
# Normal human melanocytes = assay: Inhibitory action on elongation of dendrites; type: cell-based
# Protocol: According to the following method, inhibitory action on elongation of dendrites was examined using human melanocytes.
# (Cell) Normal human melanocytes
# (Medium) Basic medium (Medium 154S) to which the following reagents were added
# (Reagent) Growth additive: bovine pituitary extract (BPE) (final concentration in the medium: 0.4% v/v), fetus bovine serum (FBS) (final concentration in the medium: 0.5% v/v), human recombinant basic fibroblast growth factor (rFGF-B) (final concentration in the medium: 3 ng/ml), hydrocortisone (final concentration in the medium: 0.18 μg/ml), insulin (final concentration in the medium: 5 μg/ml), transferrin (final concentration in the medium: 5 μg/ml), phorbol 12-myristate 13-acetate (PMA) (final concentration in the medium: 10 ng/ml), heparin (final concentration in the medium: 3 μg/ml), PSA solution (mixed solution at a concentration of penicillin: 50,000 Unit/ml, a concentration of streptomycin: 50 μg/ml, and a concentration of amphotericin B: 12.5 μg/ml. Added 1 ml thereof for 500 ml of the medium.) (Test Method)
# Normal human melanocytes were seeded (3,000 cells/well) into a 48-well microplate into which the above medium (198 μl/well) was poured, and cultured at 37° C. After 24 hours, Compound 1 (centaureidin) produced in Production Example 6 was dissolved in dimethyl sulfoxide (DMSO) at final concentrations in the medium of 0 mM (control), 0.1 mM, 0.5 mM, and 1 mM, to obtain sample solutions. To 1 μl of each of those sample solutions, 9 μl of the medium were added. 2 μl of each solution were added into each well of the microplate and culture was continued. After 24 hours from addition of the samples, the length of dendrites was observed.
# In the same manner as in Test Example 1, but using extracts produced in Production Examples 1 to 5, sample solutions were prepared so that the final concentration of Compound 1 (centaureidin) in the medium was 0.5 mM, to thereby examine inhibitory action on elongation of dendrites.
# In the same manner as in Test Example 1, Compounds 2 to 4 were further examined for inhibitory action on elongation of dendrites under the condition that the final concentration in the medium was 0.5 mM.
# [1] = centaureidin 0 mM, 4-n-butyl resorcinol 0.01 % by mass
# [2] = centaureidin 0 mM, 4-n-butyl resorcinol 0.1 % by mass
# [3] = centaureidin 0 mM, 4-n-butyl resorcinol 0.5 % by mass
# [4] = centaureidin 0.1 mM, 4-n-butyl resorcinol 0 % by mass
# [5] = centaureidin 0.5 mM, 4-n-butyl resorcinol 0 % by mass
# [6] = normal human melanocytes, 24 hours
# [7] = Compounds 2 to 4, final concentration in the medium 0.5 mM, 24 hours
smiles,measurement,setting,value
CCCCc1ccc(O)cc1O [4-n-butyl resorcinol],Color of cells,melanoma B-16 cells; [1],score 1
same,Number of cells,melanoma B-16 cells; [1],score 3
same,Color of cells,melanoma B-16 cells; [2],score 3
same,Number of cells,melanoma B-16 cells; [2],score 2
same,Color of cells,melanoma B-16 cells; [3],score 4
same,Number of cells,melanoma B-16 cells; [3],score 1
"COc1ccc(-c2oc3cc(O)c(OC)c(O)c3c(=O)c2OC)cc1O [Compound 1, 5,7-dihydroxy-3,6-dimethoxy-2-(5-hydroxy-4-methoxyphenyl)-4H-1-benzopyran-4-one]",Color of cells,melanoma B-16 cells; [4],score 1
same,Number of cells,melanoma B-16 cells; [4],score 3
same,Color of cells,melanoma B-16 cells; [5],score 1
same,Number of cells,melanoma B-16 cells; [5],score 3
same,Effect on cell death (in words),melanoma B-16 cells; melanoma B-16 cells cultured with 4-n-butyl resorcinol,inhibits cell death
same,Length of dendrite,"Normal human melanocytes; centaureidin 0.1 mM final concentration in medium, 24 hours after addition, control (0 mM) 140 ± 29",101 ± 15 μm
same,Length of dendrite,"Normal human melanocytes; centaureidin 0.5 mM final concentration in medium, 24 hours after addition, control (0 mM) 140 ± 29",26 ± 8 μm
same,Length of dendrite,"Normal human melanocytes; centaureidin 1 mM final concentration in medium, 24 hours after addition, control (0 mM) 140 ± 29",24 ± 6 μm
same,Concentration at which inhibitory action on elongation of dendrites can be confirmed,Normal human melanocytes; [6],at least 0.1 mM
same,Concentration at which inhibitory action on elongation of dendrites is particularly remarkable,Normal human melanocytes; [6],≥ 0.5 mM
same,Inhibitory action on elongation of dendrites (in words),"Normal human melanocytes; normal human melanocytes, 24 hours after addition",elongation of dendrites is inhibited
"COc1c(O)c(OC)c2oc(-c3cc(O)c(O)c(O)c3)c(OC)c(=O)c2c1O [Compound 2, 5,7-dihydroxy-3,6,8-trimethoxy-2-(3,4,5-trihydroxyphenyl)-4H-1-benzopyran-4-one]",Length of dendrite,Normal human melanocytes; [7],34 ± 19 μm
"CCOc1cc(-c2oc3cc(OC)c(OC)c(OCC)c3c(=O)c2OCC)ccc1OC [Compound 3, 3,5-diethoxy-6,7-dimethoxy-2-(5-ethoxy-4-methoxyphenyl)-4H-1-benzopyran-4-one]",Length of dendrite,Normal human melanocytes; [7],47 ± 28 μm
"COc1cc(OC)c(-c2oc3cc(OC)c(O)c(O)c3c(=O)c2OC)cc1O [Compound 4, 5,6-dihydroxy-3,7-dimethoxy-2-(5-hydroxy-2,4-dimethoxyphenyl)-4H-1-benzopyran-4-one]",Length of dendrite,Normal human melanocytes; [7],31 ± 22 μm
